Patent US11345912B2, “Directed evolution of multivalent glycopeptides that tightly bind to target proteins” (Brandeis University, priority 2013, dated 2022)

Tested on: 2G12
Assay: Binding curve and KD determination of 2G12-glycopeptide interaction (radiolabeled glycopeptide, protein G magnetic bead capture, scintillation counting)
Experimental: The resulting mRNAs were purified by denaturing PAGE or MEGAclear kit (Ambion), and 1 μM RNA was used in PURE system translation (reaction volume of translation varied). Typically, 25 μL of translated reaction was diluted with 100 μL of binding buffer (50 mM Tris-HCl, pH 7.8, 300 mM NaCl, 5 mM β-mercaptoethanol) and 25 μL of Ni-NTA agarose suspension (Qiagen), and tumbled at room temperature for 1 h. The resins were transferred to 0.22 μm spin-filter rinsing with 100 μL of bind buffer, and washed with 3×200 μL of bind buffer and 2×200 μL of wash buffer (50 mM Tris-HCl, pH 7.8, 5 mM β-mercaptoethanol). The bound peptides were eluted with 2×25 μL of 0.1% TFA. The eluted peptides were analyzed by MALDI-TOF MS, using α-Cyano-4-hydroxycinnamic acid matrix (Sigma), with or without desalting with ZipTip C18 resin (Millipore). For calibration of MALDI-TOF-MS, at least two of the following standards, bovine insulin, E. coli thioredoxin and/or horse apomyoglobin were used. To quantitate peptide yields, the radioactivities were measured by liquid scintillation counting. For the click reaction, the translated and purified peptides were mixed with 0.1% (v/v) Triton X-100, and then dialyzed against H2O containing 0.1% (v/v) Triton X-100 using Slide-A-Lyzer MINI Dialysis Devices, 3.5K MWCO (Thermo Scientific) overnight to desalt. After dialysis, the peptides were divided into two portions: one was glycosylated via the click reaction, while the other was saved as a non-glycosylated peptide control. […] The glycosylated peptide (<4 pmol) was incubated with 100 nM 2G12 in selection buffer (40 μL) at room temp. The solution was then tumbled 30 min with 0.12 mg of equilibrated Dynabeads Protein G to capture 2G12-glycopeptide complex. Beads were then washed with 3×40 μL of selection buffer and resuspended in 10 μL of selection buffer. The resuspended beads were heated at 70° C. for 30 min to denature 2G12 and elute glycopeptides, chilled on ice for 5 min, and tumbled at room temperature for 10 min. The magnetically isolated supernatant was recovered and the beads were rinsed with 10 μL of selection buffer.
Then, the solution was added to 0.12 mg of pre-equilibrated Dynabeads Protein G and tumbled at room temperature for 30 min. The supernatant was removed and the beads were washed with 3×40 μL of selection buffer. The radioactivities of the supernatant and wash solutions were measured by liquid scintillation counting as unbound fractions. […] The beads were resuspended in 40 μL of selection buffer, heated at 70° C. for 30 min to elute the bound glycopeptides, chilled on ice for 5 min, and tumbled at room temperature for 10 min. The supernatant was removed, and the beads were washed with 40 μL of selection buffer and resuspended in 40 μL of selection buffer. The radioactivities of these solutions and suspensions were measured by liquid scintillation counting separately and the values were combined as apparent bound fractions. […] All experiments were done at least in triplicate. KDs were calculated as described in the footnote of Table 4 (below).

Row | Structure (SMILES) | tolerance of Cys substitutions for 2G12 binding (in words) (Cys to Ser mutants, Table 6) | Fmax [%] (Table 4, maximal fraction bound from curve fit, error = standard error of fit) | Kd (Table 4, ribosomally translated radiolabeled glycopeptide with His6/FLAG tag, room temperature, fit Fbound=(Fmax[2G12])/(KD+[2G12]), error = standard error of fit) [nM] | Fmax [%] (Table 6 mutational analysis, radioactive bead binding assay) | Kd (Table 6 mutational analysis, radioactive bead binding assay, ribosomally translated) [nM]
1 | CC[C@H](C)[C@H](NC(=O)[C@H](CCC(N)=O)NC(=O)[C@H](CCCCN)NC(=O)[C@H](CC(C)C)NC(=O)[C@H](Cc1c[nH]cn1)NC(=O)[C@H](CC(C)C)NC(=O)[C@@H](NC(=O)[C@H](CC(=O)O)NC(=O)[C@H](CCc1cn(C2CCC(OC3O[C@H](CO[C@H]4O[C@H](CO[C@H]5O[C@H](CO)[C@@H](O)[C@H](O)[C@@H]5O[C@H]5O[C@H](CO)[C@@H](O)[C@H](O)[C@@H]5O)[C@@H](O)[C@H](O[C@H]5O[C@H](CO)[C@@H](O)[C@H](O)[C@@H]5O[C@H]5O[C@H](CO)[C@@H](O)[C@H](O)[C@@H]5O)[C@@H]4O)[C@@H](O)[C@H](O[C@H]4O[C@H](CO)[C@@H](O)[C@H](O)[C@@H]4O[C@H]4O[C@H](CO)[C@@H](O)[C@H](O)[C@@H]4O[C@H]4O[C@H](CO)[C@@H](O)[C@H](O)[C@@H]4O)[C@@H]3O)CC2)nn1)NC=O)[C@@H](C)O)C(=O)NCC(=O)NCC(=O)N[C@@H](CCc1cn(C2CCC(OC3O[C@H](CO[C@H]4O[C@H](CO[C@H]5O[C@H](CO)[C@@H](O)[C@H](O)[C@@H]5O[C@H]5O[C@H](CO)[C@@H](O)[C@H](O)[C@@H]5O)[C@@H](O)[C@H](O[C@H]5O[C@H](CO)[C@@H](O)[C@H](O)[C@@H]5O[C@H]5O[C@H](CO)[C@@H](O)[C@H](O)[C@@H]5O)[C@@H]4O)[C@@H](O)[C@H](O[C@H]4O[C@H](CO)[C@@H](O)[C@H](O)[C@@H]4O[C@H]4O[C@H](CO)[C@@H](O)[C@H](O)[C@@H]4O[C@H]4O[C@H](CO)[C@@H](O)[C@H](O)[C@@H]4O)[C@@H]3O)CC2)nn1)C(=O)N1CCC[C@H]1C(=O)N[C@@H](CC(N)=O)C(=O)N[C@@H](CS)C(=O)N[C@H](C(=O)N[C@H](C(=O)N[C@@H](CCC(N)=O)C(=O)N[C@@H](CCC(N)=O)C(=O)N[C@@H](CC(=O)O)C(=O)N[C@H](C(=O)N[C@@H](CCCNC(=N)N)C(=O)N[C@@H](CCc1cn(C2CCC(OC3O[C@H](CO[C@H]4O[C@H](CO[C@H]5O[C@H](CO)[C@@H](O)[C@H](O)[C@@H]5O[C@H]5O[C@H](CO)[C@@H](O)[C@H](O)[C@@H]5O)[C@@H](O)[C@H](O[C@H]5O[C@H](CO)[C@@H](O)[C@H](O)[C@@H]5O[C@H]5O[C@H](CO)[C@@H](O)[C@H](O)[C@@H]5O)[C@@H]4O)[C@@H](O)[C@H](O[C@H]4O[C@H](CO)[C@@H](O)[C@H](O)[C@@H]4O[C@H]4O[C@H](CO)[C@@H](O)[C@H](O)[C@@H]4O[C@H]4O[C@H](CO)[C@@H](O)[C@H](O)[C@@H]4O)[C@@H]3O)CC2)nn1)C(=O)N[C@H](C(=O)N[C@@H](CO)C(=O)N[C@H](C(=O)N1CCC[C@H]1C(=O)N[C@@H](Cc1ccc(O)cc1)C(=O)N[C@H](C(=O)N[C@@H](Cc1ccc(O)cc1)C(=O)N[C@H](C(=O)N[C@@H](Cc1c[nH]c2ccccc12)C(=O)N1CCC[C@H]1C(=O)NCC(=O)N[C@@H](CO)C(=O)NCC(=O)N[C@@H](CO)C(=O)N[C@@H](CC(C)C)C(=O)NCC(=O)N[C@@H](Cc1c[nH]cn1)C(=O)N[C@@H](Cc1c[nH]cn1)C(=O)N[C@@H](Cc1c[nH]cn1)C(=O)N[C@@H](Cc1c[nH]cn1)C(=O)N[C@@H](Cc1c[nH]cn1)C(=O)N[C@@H](Cc1c[nH]cn1)C(=O)N[C@@H](CCCNC(=N)N)C(=O)N[C@@H](CC(=O)O)C(=O)N[C@@H](Cc1ccc(O)cc1)C(=O)N[C@@H](CCCCN)C(=O)N[C@@H](CC(=O)O)C(=O)N[C@@H](CC(=O)O)C(=O)N[C@@H](CC(=O)O)C(=O)N[C@@H](CC(=O)O)C(=O)N[C@@H](CCCCN)C(=O)O)[C@@H](C)O)[C@@H](C)O)[C@@H](C)CC)[C@@H](C)O)C(C)C)[C@@H](C)O)[C@@H](C)CC (some centres unmarked) [Clone 10F3, XDTLHLKQIGGXPNCITQQDVRXTSIPYTYTWP] | tolerated | 100 ± 2.7 | 3 ± 0.31 |  | 
2 | CC[C@H](C)[C@H](NC(=O)[C@H](CCC(N)=O)NC(=O)[C@H](CCCCN)NC(=O)[C@H](CC(C)C)NC(=O)[C@H](Cc1c[nH]cn1)NC(=O)[C@H](CC(C)C)NC(=O)[C@@H](NC(=O)[C@H](CC(=O)O)NC(=O)[C@H](CCc1cn(C2CCC(OC3O[C@H](CO[C@H]4O[C@H](CO[C@H]5O[C@H](CO)[C@@H](O)[C@H](O)[C@@H]5O[C@H]5O[C@H](CO)[C@@H](O)[C@H](O)[C@@H]5O)[C@@H](O)[C@H](O[C@H]5O[C@H](CO)[C@@H](O)[C@H](O)[C@@H]5O[C@H]5O[C@H](CO)[C@@H](O)[C@H](O)[C@@H]5O)[C@@H]4O)[C@@H](O)[C@H](O[C@H]4O[C@H](CO)[C@@H](O)[C@H](O)[C@@H]4O[C@H]4O[C@H](CO)[C@@H](O)[C@H](O)[C@@H]4O[C@H]4O[C@H](CO)[C@@H](O)[C@H](O)[C@@H]4O)[C@@H]3O)CC2)nn1)NC=O)[C@@H](C)O)C(=O)NCC(=O)NCC(=O)N[C@@H](CCc1cn(C2CCC(OC3O[C@H](CO[C@H]4O[C@H](CO[C@H]5O[C@H](CO)[C@@H](O)[C@H](O)[C@@H]5O[C@H]5O[C@H](CO)[C@@H](O)[C@H](O)[C@@H]5O)[C@@H](O)[C@H](O[C@H]5O[C@H](CO)[C@@H](O)[C@H](O)[C@@H]5O[C@H]5O[C@H](CO)[C@@H](O)[C@H](O)[C@@H]5O)[C@@H]4O)[C@@H](O)[C@H](O[C@H]4O[C@H](CO)[C@@H](O)[C@H](O)[C@@H]4O[C@H]4O[C@H](CO)[C@@H](O)[C@H](O)[C@@H]4O[C@H]4O[C@H](CO)[C@@H](O)[C@H](O)[C@@H]4O)[C@@H]3O)CC2)nn1)C(=O)N1CCC[C@H]1C(=O)N[C@@H](CC(N)=O)C(=O)N[C@@H](CO)C(=O)N[C@H](C(=O)N[C@H](C(=O)N[C@@H](CCC(N)=O)C(=O)N[C@@H](CCC(N)=O)C(=O)N[C@@H](CC(=O)O)C(=O)N[C@H](C(=O)N[C@@H](CCCNC(=N)N)C(=O)N[C@@H](CCc1cn(C2CCC(OC3O[C@H](CO[C@H]4O[C@H](CO[C@H]5O[C@H](CO)[C@@H](O)[C@H](O)[C@@H]5O[C@H]5O[C@H](CO)[C@@H](O)[C@H](O)[C@@H]5O)[C@@H](O)[C@H](O[C@H]5O[C@H](CO)[C@@H](O)[C@H](O)[C@@H]5O[C@H]5O[C@H](CO)[C@@H](O)[C@H](O)[C@@H]5O)[C@@H]4O)[C@@H](O)[C@H](O[C@H]4O[C@H](CO)[C@@H](O)[C@H](O)[C@@H]4O[C@H]4O[C@H](CO)[C@@H](O)[C@H](O)[C@@H]4O[C@H]4O[C@H](CO)[C@@H](O)[C@H](O)[C@@H]4O)[C@@H]3O)CC2)nn1)C(=O)N[C@H](C(=O)N[C@@H](CO)C(=O)N[C@H](C(=O)N1CCC[C@H]1C(=O)N[C@@H](Cc1ccc(O)cc1)C(=O)N[C@H](C(=O)N[C@@H](Cc1ccc(O)cc1)C(=O)N[C@H](C(=O)N[C@@H](Cc1c[nH]c2ccccc12)C(=O)N1CCC[C@H]1C(=O)NCC(=O)N[C@@H](CO)C(=O)NCC(=O)N[C@@H](CO)C(=O)N[C@@H](CC(C)C)C(=O)NCC(=O)N[C@@H](Cc1c[nH]cn1)C(=O)N[C@@H](Cc1c[nH]cn1)C(=O)N[C@@H](Cc1c[nH]cn1)C(=O)N[C@@H](Cc1c[nH]cn1)C(=O)N[C@@H](Cc1c[nH]cn1)C(=O)N[C@@H](Cc1c[nH]cn1)C(=O)N[C@@H](CCCNC(=N)N)C(=O)N[C@@H](CC(=O)O)C(=O)N[C@@H](Cc1ccc(O)cc1)C(=O)N[C@@H](CCCCN)C(=O)N[C@@H](CC(=O)O)C(=O)N[C@@H](CC(=O)O)C(=O)N[C@@H](CC(=O)O)C(=O)N[C@@H](CC(=O)O)C(=O)N[C@@H](CCCCN)C(=O)O)[C@@H](C)O)[C@@H](C)O)[C@@H](C)CC)[C@@H](C)O)C(C)C)[C@@H](C)O)[C@@H](C)CC (some centres unmarked) [Clone 10F3-C15S] |  |  |  | 63 | 2.91
